Holding throughout (type): biochemical
For test [1], the target named is T1, human JAK2 (a.a. 828-1132) (Homo sapiens, UniProt O60674).
T1 construct: JAK2 (a.a. 828-1132); His tag (N); made in house; host or cells: insect cells (baculovirus)
Briefly: In vitro JAK kinase assay (HTRF, phosphorylation of a biotinylated peptide), JAK2. The method, boiled down: (§1)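 Kinase reactions ran at room temperature for 1 h with ATP matched per isoform (JAK1 90 μM, JAK2 30 μM, JAK3 3 μM). After an EDTA stop, the phosphorylated biotin-peptide was read by HTRF using Eu-Py20 and SA-APC after 40 min binding.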
For orientation: TR-FRET usually uses a lanthanide donor and a delayed reading to cut background.

The target of test [2] is T2, human JAK3 (a.a. 781-1124) (Homo sapiens, UniProt P52333).
T2 construct: JAK3 (a.a. 781-1124); His tag (N); made in house; host or cells: insect cells (baculovirus)
Briefly: In vitro JAK kinase assay (HTRF, phosphorylation of a biotinylated peptide), JAK3. The method, boiled down:
as §1

The target in test [3] is T3, Recombinant Human Anaplastic Lymphoma Kinase (Homo sapiens, UniProt Q9UM73).
T3 construct: purchased Invitrogen, Carlsbad, Calif
The test is described as follows: ALK HTRF kinase assay. The method, boiled down: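 IC50 was obtained from a logistic fit of signal versus log inhibitor concentration, using pre- and post-transition baselines and a Hill slope. The signal reported tyrosine phosphorylation of a biotinylated peptide by recombinant human kinase, detected as Eu-to-APC energy transfer.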

For test [4], the target named is T4, human JAK1 (a.a. 837-1142) (Homo sapiens, UniProt P23458).
T4 construct: human JAK1 (a.a. 837-1142); His tag (N); made in house; host or cells: insect cells (baculovirus)
The test is described as follows: In vitro JAK kinase assay (HTRF, phosphorylation of a biotinylated peptide), JAK1. Particulars: read-out: JAK1 IC50. The method, boiled down: as §1

A further test concerns the target TYK2 (Homo sapiens, UniProt P29597). The test is described as follows: TYK2 kinase inhibition (Table A1).
The mark [5] stands for this setting: method AA1 (30 μM ATP) or AA2 (1000 μM ATP), not stated per value.
Setting [6] is: method AA1 (3 μM ATP) or AA2 (1000 μM ATP), not stated per value.
The mark [7] stands for this setting: compound at 500 nM or 1 mM, 90 μM ATP.
The mark [8] stands for this setting: method AA1 (90 μM ATP) or AA2 (1000 μM ATP), not stated per value.
The mark [9] stands for this setting: compound at a concentration of 500 nM or 1 mM (not specified), cells shown as percentage.
The mark [10] stands for this setting: Table B1, cells without percent sign.

Structures can show the parent of a compound that is named as a salt. Where two headings read alike, the source gives them in different places.

T1 sequence (O60674 828-1132): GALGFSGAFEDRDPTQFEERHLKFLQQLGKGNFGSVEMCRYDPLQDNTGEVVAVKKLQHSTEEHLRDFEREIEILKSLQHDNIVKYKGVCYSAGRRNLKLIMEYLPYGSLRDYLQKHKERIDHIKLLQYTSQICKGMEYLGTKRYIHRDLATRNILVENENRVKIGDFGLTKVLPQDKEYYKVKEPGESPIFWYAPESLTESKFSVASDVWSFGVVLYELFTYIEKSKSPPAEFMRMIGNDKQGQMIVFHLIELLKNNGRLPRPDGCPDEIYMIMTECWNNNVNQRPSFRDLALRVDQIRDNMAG
T2 sequence (P52333 781-1124): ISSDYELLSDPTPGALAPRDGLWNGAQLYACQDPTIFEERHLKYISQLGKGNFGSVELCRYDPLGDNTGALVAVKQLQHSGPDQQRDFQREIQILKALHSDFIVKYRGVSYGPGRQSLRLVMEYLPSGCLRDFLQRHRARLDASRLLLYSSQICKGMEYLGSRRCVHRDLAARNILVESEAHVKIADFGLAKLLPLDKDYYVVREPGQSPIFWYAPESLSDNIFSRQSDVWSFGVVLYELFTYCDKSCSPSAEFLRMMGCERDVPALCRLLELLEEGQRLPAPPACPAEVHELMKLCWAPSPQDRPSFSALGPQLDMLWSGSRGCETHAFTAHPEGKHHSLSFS
T3 sequence (Q9UM73 19-1620): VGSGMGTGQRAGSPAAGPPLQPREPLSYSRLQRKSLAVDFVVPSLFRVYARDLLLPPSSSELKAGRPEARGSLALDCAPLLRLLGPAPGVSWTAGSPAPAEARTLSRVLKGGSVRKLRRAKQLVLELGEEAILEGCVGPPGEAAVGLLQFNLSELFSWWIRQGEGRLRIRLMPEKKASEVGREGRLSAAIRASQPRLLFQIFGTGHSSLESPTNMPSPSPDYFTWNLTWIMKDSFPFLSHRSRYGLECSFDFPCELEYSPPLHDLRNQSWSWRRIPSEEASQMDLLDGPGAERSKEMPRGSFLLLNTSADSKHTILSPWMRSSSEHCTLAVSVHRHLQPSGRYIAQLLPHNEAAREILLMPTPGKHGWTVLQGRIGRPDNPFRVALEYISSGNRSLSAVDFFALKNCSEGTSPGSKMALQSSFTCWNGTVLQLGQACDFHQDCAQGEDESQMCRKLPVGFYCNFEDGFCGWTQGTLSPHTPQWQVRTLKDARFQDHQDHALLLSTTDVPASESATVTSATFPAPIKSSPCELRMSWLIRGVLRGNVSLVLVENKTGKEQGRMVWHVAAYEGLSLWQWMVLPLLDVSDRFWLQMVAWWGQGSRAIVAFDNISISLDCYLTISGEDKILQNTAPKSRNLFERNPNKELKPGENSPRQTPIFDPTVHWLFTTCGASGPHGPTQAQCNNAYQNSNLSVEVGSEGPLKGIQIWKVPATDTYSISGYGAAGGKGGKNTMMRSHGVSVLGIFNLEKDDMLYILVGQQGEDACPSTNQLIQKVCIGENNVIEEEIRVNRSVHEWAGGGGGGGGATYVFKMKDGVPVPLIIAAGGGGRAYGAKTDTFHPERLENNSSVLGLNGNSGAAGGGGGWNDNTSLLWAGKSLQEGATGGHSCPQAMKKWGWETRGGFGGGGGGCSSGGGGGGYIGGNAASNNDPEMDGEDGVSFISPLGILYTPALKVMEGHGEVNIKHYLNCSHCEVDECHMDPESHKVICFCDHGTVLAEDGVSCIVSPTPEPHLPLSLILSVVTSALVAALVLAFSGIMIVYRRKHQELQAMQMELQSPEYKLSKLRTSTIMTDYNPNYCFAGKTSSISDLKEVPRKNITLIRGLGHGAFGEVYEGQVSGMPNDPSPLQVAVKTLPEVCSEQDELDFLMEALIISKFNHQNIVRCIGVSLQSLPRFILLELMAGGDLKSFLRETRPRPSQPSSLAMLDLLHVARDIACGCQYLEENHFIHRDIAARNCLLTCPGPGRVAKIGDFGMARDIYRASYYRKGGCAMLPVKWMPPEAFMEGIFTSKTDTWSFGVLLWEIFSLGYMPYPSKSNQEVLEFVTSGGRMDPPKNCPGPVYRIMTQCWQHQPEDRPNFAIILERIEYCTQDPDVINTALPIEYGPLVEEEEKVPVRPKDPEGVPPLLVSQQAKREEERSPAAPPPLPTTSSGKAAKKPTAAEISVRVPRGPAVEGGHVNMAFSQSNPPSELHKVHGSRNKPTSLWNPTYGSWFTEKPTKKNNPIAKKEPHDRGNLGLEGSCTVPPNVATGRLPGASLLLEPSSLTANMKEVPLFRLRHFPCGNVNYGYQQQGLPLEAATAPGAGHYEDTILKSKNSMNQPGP
T4 sequence (P23458 849-1154): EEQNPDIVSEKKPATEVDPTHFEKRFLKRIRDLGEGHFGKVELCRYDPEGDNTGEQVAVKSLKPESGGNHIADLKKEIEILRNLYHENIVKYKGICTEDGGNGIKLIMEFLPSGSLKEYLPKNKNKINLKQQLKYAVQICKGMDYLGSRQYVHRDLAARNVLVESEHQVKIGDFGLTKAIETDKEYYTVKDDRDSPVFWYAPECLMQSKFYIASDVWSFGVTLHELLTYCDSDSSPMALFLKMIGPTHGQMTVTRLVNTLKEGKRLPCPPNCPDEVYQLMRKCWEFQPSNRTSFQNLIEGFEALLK
Chain of TYK2 (P29597 whole entry): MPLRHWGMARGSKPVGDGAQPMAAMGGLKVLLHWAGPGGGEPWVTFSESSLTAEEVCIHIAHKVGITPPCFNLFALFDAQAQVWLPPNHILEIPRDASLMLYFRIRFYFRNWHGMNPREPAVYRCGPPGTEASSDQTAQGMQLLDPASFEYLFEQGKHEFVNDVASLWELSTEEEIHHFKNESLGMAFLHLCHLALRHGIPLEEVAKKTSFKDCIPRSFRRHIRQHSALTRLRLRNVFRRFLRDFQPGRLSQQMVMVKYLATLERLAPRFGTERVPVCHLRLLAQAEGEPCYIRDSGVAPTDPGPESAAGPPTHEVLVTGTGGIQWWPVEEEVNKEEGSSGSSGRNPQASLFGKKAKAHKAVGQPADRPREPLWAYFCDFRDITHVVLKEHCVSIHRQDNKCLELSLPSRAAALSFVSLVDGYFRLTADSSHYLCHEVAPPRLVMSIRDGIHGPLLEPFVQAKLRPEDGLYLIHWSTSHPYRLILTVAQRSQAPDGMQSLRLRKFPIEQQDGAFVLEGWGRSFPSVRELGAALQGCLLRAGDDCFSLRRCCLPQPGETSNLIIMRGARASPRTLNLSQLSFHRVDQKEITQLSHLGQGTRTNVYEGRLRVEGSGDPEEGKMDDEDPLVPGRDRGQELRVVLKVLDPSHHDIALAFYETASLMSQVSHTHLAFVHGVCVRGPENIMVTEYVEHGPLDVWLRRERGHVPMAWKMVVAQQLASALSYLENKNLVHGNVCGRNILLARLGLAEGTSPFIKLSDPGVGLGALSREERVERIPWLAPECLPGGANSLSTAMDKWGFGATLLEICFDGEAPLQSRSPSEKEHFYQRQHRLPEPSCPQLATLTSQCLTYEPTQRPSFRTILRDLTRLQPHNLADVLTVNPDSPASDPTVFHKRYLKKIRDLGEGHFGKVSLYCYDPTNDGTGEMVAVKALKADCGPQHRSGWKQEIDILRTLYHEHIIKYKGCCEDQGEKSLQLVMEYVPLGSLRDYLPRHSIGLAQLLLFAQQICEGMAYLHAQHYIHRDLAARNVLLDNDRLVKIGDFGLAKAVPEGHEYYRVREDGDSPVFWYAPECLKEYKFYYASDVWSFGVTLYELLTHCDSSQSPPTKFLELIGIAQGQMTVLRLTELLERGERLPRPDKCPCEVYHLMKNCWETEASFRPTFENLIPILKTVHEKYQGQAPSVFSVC

By IC50 is commonly meant the concentration needed to halve the response being measured. With `CN(C)C(=O)N1CCC(CC(=O)Nc2ccc3cc2CCc2cccc(c2)Nc2ncc(Cl)c(n2)N3)CC1` [Example A80, 4-(2-{[6-Chloro-2,4,8,22-tetraazatetracyclo[14.3.1.1(3,7).1(9,13)]docosa-1(20),3(22),4,6,9(21),10,12,16,18-nonaen-12-yl]amino}-2-oxoethyl)-N,N-dimethylpiperidine-1-carboxamide trifluoroacetate], the concentration for half-maximal inhibition (IC50) in test [1] (setting [5]) amounted to 4.4 nM; in test [2] (setting [6]), 62 nM; in test [4] (setting [8]), 8.1 nM; on TYK2, 5.3 nM. In addition, in test [3] (setting [7]), the “ALK % of inhibition at a concentration of 500 nM or 1 mM” value (“ALK % of inhibition” for short) was 21%.

With `Clc1cnc2nc1Nc1cccc(c1)SCCOc1cccc(c1)N2` [Example D11, 6-Chloro-17-oxa-14-thia-2,4,8,24-tetraazatetracyclo[16.3.1.1(3,7).1(9,13)]tetracosa-1(22),3(24),4,6,9(23),10,12,18,20-nonaene trifluoroacetate], the IC50 turned out to be 5.4 nM in test [1] (Table D1); 24 nM in test [2] (Table D1); 480 nM in test [3] (Table D1, 90 μM ATP); 3.4 nM in test [4] (Table D1); 9.9 nM against TYK2 (Table D1).

Turning to `Clc1cnc2nc1Nc1cccc(c1)OCCc1cc(Br)cc(c1)N2` [Example D22, 19-Bromo-6-chloro-14-oxa-2,4,8,23-tetraazatetracyclo[15.3.1.1(3,7).1(9,13)]tricosa-1(21),3(23),4,6,9(22),10,12,17,19-nonaene trifluoroacetate], the IC50 was determined as 7.9 nM in test [1] (Table D1); 41 nM in test [2] (Table D1); 489 nM in test [3] (Table D1, 90 μM ATP); 4.2 nM in test [4] (Table D1); 28 nM against TYK2 (Table D1).

For `COc1ccccc1N1CCN(C(=O)Nc2ccc3cc2CCc2cncc(c2)Nc2ncc(Cl)c(n2)N3)CC1` [Example B298, N-[6-Chloro-2,4,8,18,22-pentaazatetracyclo[14.3.1.1(3,7).1(9,13)]docosa-1(20),3(22),4,6,9(21),10,12,16,18-nonaen-12-yl]-4-(2-methoxyphenyl)piperazine-1-carboxamide tris(trifluoroacetate)], the IC50 in test [1] (Table B1) was 341 nM; in test [2] (Table B1) it was over 400 nM; in test [4] (Table B1) it was 29 nM; against TYK2 (Table B1), 208 nM. The “ALK % of inhibition” value in test [3] (setting [9]) worked out at 62%.

In the case of `Clc1cnc2nc1Nc1cccc(c1)CSCCc1cccc(c1)N2` [Example D32, 6-Chloro-15-thia-2,4,8,24-tetraazatetracyclo[16.3.1.1(3,7).1(9,13)]tetracosa-1(22),3(24),4,6,9(23),10,12,18,20-nonaene trifluoroacetate], the concentration for half-maximal inhibition (IC50) in test [1] (Table D1) was 43 nM; in test [2] (Table D1), 84 nM; in test [3] (Table D1, 90 μM ATP), over 1000 nM; in test [4] (Table D1), 41 nM; on TYK2 (Table D1) it was 45 nM.

In the case of `N#Cc1ccccc1NC(=O)N1CCC(CC(=O)Nc2ccc3cc2CCc2cncc(c2)Nc2ncc(Cl)c(n2)N3)CC1` [Example A141, 4-(2-{[6-Chloro-2,4,8,18,22-pentaazatetracyclo[14.3.1.1(3,7).1(9,13)]docosa-1(20),3(22),4,6,9(21),10,12,16,18-nonaen-12-yl]amino}-2-oxoethyl)-N-(2-cyanophenyl)piperidine-1-carboxamide bis(trifluoroacetate)], the IC50 in test [1] (setting [5]) was 12 nM; in test [2] (setting [6]), over 100 nM; in test [4] (setting [8]), 3.5 nM; against TYK2 it was 13 nM. The “ALK % of inhibition” value in test [3] (setting [7]) is reported as 19%.

On to `COc1cccc(C(=O)Nc2ccc3cc2CCc2cccc(c2)Nc2ncc(Cl)c(n2)N3)c1` [Example B66, N-[6-Chloro-2,4,8,22-tetraazatetracyclo[14.3.1.1(3,7).1(9,13)]docosa-1(20), 3(22),4,6,9(21),10,12,16,18-nonaen-12-yl]-3-methoxybenzamide trifluoroacetate], for which the IC50 was found to be 1.6 nM in test [1] (Table B1); 13 nM in test [2] (Table B1); 310 nM in test [3] (setting [10]); 3 nM in test [4] (Table B1); 4.5 nM on TYK2 (Table B1).

For the compound `Clc1cnc2nc1Nc1ccc(OC3CCCC3)c(c1)CCc1cccc(c1)N2` [Example A14, 6-Chloro-12-(cyclopentyloxy)-2,4,8,22-tetraazatetracyclo[14.3.1.1(3,7).1(9,13)]docosa-1(20),3(22),4,6,9(21),10,12,16,18-nonaene trifluoroacetate], the 50% inhibitory concentration (IC50) in test [1] (setting [5]) is 42 nM; in test [2] (setting [6]), 144 nM; in test [4] (setting [8]) it was 74 nM; on TYK2 it was 116 nM. Also, the “ALK % of inhibition” value in test [3] (setting [7]) stood at 0%.

For the compound `O=C(NCc1ccccc1)c1cc2cc(c1)OCCSc1cccc(c1)Nc1nc(ncc1Cl)N2` [Example D51, N-Benzyl-6-chloro-17-oxa-14-thia-2,4,8,24-tetraazatetracyclo[16.3.1.1(3,7).1(9,13)]tetracosa-1(22),3(24),4,6,9(23),10,12,18,20-nonaene-20-carboxamide trifluoroacetate], the IC50 came out at 1.2 nM in test [1] (Table D1); 14 nM in test [2] (Table D1); 910 nM in test [3] (Table D1, 90 μM ATP); 1.8 nM in test [4] (Table D1); 4.5 nM against TYK2 (Table D1).

Take `CC(C)(C)c1ccc(C(=O)Nc2ccc3cc2CCc2cccc(c2)Nc2ncc(Cl)c(n2)N3)cc1` [Example B73, 4-tert-Butyl-N-[6-chloro-2,4,8,22-tetraazatetracyclo[14.3.1.1(3,7).1(9,13)]docosa-1(20),3(22),4,6,9(21),10,12,16,18-nonaen-12-yl]benzamide trifluoroacetate]: the IC50 came to 103 nM in test [1] (Table B1), 178 nM in test [2] (Table B1), 80 nM in test [4] (Table B1) and 154 nM against TYK2 (Table B1). The “ALK % of inhibition” value in test [3] (setting [9]) came to 21%.

`Cc1noc(C)c1C(=O)N1CCC(CC(=O)Nc2ccc3cc2CCc2cncc(c2)Nc2ncc(Cl)c(n2)N3)CC1` [Example A156, N-[6-Chloro-2,4,8,18,22-pentaazatetracyclo[14.3.1.1(3,7).1(9,13)]docosa-1(20),3(22),4,6,9(21),10,12,16,18-nonaen-12-yl]-2-{1-[(3,5-dimethylisoxazol-4-yl)carbonyl]piperidin-4-yl}acetamide bis(trifluoroacetate)]: the IC50 in test [1] (setting [5]) is 917 nM; in test [2] (setting [6]), over 10000 nM; in test [4] (setting [8]) it was 96 nM; on TYK2, 2500 nM. In addition, the “ALK % of inhibition” value in test [3] (setting [7]) is 17%.

On to `Cc1cccc(C(=O)Nc2ccc3cc2CCc2cccc(c2)Nc2ncc(Cl)c(n2)N3)c1` [Example B46, N-[6-Chloro-2,4,8,22-tetraazatetracyclo[14.3.1.1(3,7).1(9,13)]docosa-1(20), 3(22),4,6,9(21),10,12,16,18-nonaen-12-yl]-3-methylbenzamide trifluoroacetate], for which the IC50 in test [1] (Table B1) turned out to be 2.3 nM; in test [2] (Table B1) it was 9.7 nM; in test [3] (setting [10]) it was 330 nM; in test [4] (Table B1) it was 2.5 nM; against TYK2 (Table B1), 3.6 nM.

For the compound `O=C(COc1cc2cc(c1)Nc1nc(ncc1Cl)Nc1cccc(c1)CC2)Nc1ccccc1` [Example A24, 2-{[6-Chloro-2,4,8,22-tetraazatetracyclo[14.3.1.1(3,7).1(9,13)]docosa-1(20),3(22),4,6,9(21),10,12,16,18-nonaen-11-yl]oxy}-N-phenylacetamide trifluoroacetate], the IC50 in test [1] (setting [5]) turned out to be 4.3 nM; in test [2] (setting [6]) it was 58 nM; in test [4] (setting [8]), 47 nM; on TYK2 it was 139 nM. For the same compound, the “ALK % of inhibition” value in test [3] (setting [7]) was 11%.
